This note sets out measurements from US10174016B2 (BAYER AKTIENGESELLSCHAFT, priority 2014, dated 2019).

Read-outs that look alike come from different tables or passages of the source. A value given as a limit tells only on which side of the number the result lay.

One assay deals with human P2X3 receptor (Homo sapiens (Human), UniProt P56373). Kind of assay: Intracellular calcium measurement (FLIPR, Fluo-4) of antagonist activity at human P2X3 receptors. To be noted: read-out: hP2X3 IC50. The format is cell-based. The essentials: (§1)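 Cells expressing human P2X3 or P2X2/3, loaded with Fluo-4, preincubated 30 min at 37° C. with compound (1% DMSO final), then challenged with α,β-Me-ATP at its EC80. Peak FLIPR fluorescence over 90 sec gave % response; IC50, maximal inhibition and Hill slope from triplicates.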

The next assay addresses human P2X2/3 receptor (Homo sapiens (Human), UniProt P56373+Q9UBL9). Kind of assay: Intracellular calcium measurement (FLIPR, Fluo-4) of antagonist activity at human P2X2/3 receptors. It counts as cell-based. The note with it: human P2X2/3, FLIPR calcium assay, agonist α,β-Me-ATP; read-out: hP2X2/3 IC50. The procedure, abridged: as §1
(In general: Calcium flux is commonly read through the fluorescence of an indicator in the cells.)

Setting [1] is: human P2X3, FLIPR calcium assay, agonist α,β-Me-ATP.

Sequence of human P2X3 receptor (P56373 whole entry): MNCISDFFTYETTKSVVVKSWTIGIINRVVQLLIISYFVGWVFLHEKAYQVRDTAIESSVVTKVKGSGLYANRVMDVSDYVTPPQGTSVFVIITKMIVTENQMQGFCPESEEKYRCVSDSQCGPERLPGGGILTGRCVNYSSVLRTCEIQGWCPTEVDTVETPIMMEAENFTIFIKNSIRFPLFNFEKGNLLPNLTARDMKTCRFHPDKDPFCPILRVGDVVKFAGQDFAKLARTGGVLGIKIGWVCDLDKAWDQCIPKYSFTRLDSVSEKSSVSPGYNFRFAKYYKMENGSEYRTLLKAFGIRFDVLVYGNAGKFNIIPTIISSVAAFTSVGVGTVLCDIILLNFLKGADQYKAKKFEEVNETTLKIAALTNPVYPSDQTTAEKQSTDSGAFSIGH
Sequence of human P2X2/3 receptor (P56373 whole entry): as above
Sequence of human P2X2/3 receptor (Q9UBL9 whole entry): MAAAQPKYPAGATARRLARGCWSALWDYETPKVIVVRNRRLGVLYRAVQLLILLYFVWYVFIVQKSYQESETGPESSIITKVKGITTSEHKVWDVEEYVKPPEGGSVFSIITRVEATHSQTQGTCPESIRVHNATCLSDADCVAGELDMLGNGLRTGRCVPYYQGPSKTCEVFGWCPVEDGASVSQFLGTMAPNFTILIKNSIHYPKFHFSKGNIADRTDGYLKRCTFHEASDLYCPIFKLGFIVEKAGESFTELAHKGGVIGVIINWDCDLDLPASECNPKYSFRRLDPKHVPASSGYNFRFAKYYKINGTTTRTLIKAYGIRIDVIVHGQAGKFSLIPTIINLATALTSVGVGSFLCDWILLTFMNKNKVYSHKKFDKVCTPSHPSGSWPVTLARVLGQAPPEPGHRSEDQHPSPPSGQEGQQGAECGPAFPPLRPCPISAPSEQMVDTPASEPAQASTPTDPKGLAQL

For `Cc1cnc(-c2cc(OC3CCN(C(=O)OC(C)(C)C)CC3)cc(C(=O)N[C@H](C)c3cnc(C(F)(F)F)nc3)c2)s1` [Example 137, tert-Butyl 4-[3-(5-methyl-1,3-thiazol-2-yl)-5-({(1R)-1-[2-(trifluoromethyl)pyrimidin-5-yl]ethyl}carbamoyl)phenoxy]piperidine-1-carboxylate], the values for the IC50 at human P2X3 receptor and at human P2X2/3 receptor were 0.026 µM and 0.328 µM, respectively.

With `Cc1cnc(-c2cc(OC[C@H]3COCCO3)cc(C(=O)N[C@H](C)c3ccc(C(F)(F)F)nn3)c2)s1` [Example 179, 3-[(2R)-1,4-dioxan-2-ylmethoxy]-5-(5-methyl-1,3-thiazol-2-yl)-N-{(1R)-1-[6-(trifluoromethyl)pyridazin-3-yl]ethyl} benzamide], the IC50 on human P2X3 receptor (setting [1]) was 0.013 µM; on human P2X2/3 receptor it was 0.703 µM.

For `Cc1cnc(-c2cc(OC3COC3)cc(C(=O)NC(C)c3ncc(F)cc3Cl)c2)s1` (centres unmarked) [Example 49, N-[1-(3-Chloro-5-fluoropyridin-2-yl)ethyl]-3-(5-methyl-1,3-thiazol-2-yl)-5-(oxetan-3-yloxy)benzamide], the IC50 at human P2X3 receptor (setting [1]) is 0.132 µM; on human P2X2/3 receptor it was 1.53 µM.

`Cc1cnc(-c2cc(OC[C@@H]3CNC(=O)CO3)cc(C(=O)N[C@H](C)c3cnc(C(F)(F)F)nc3)c2)s1` [Example 400, 3-(5-methyl-1,3-thiazol-2-yl)-5-{[(2S)-5-oxomorpholin-2-yl]methoxy}-N-{(1R)-1-[2-(trifluoromethyl)pyrimidin-5-yl]ethyl}benzamide]: the IC50 on human P2X3 receptor (setting [1]) turned out to be 0.059 µM; at human P2X2/3 receptor, 1.48 µM.

In the case of `CCc1cnc(-c2cc(O[C@H]3CCOC3)cc(C(=O)N[C@H](C)c3cnc(C(F)(F)F)nc3)c2)s1` [Example 251, 3-(5-ethyl-1,3-thiazol-2-yl)-5-[(3S)-tetrahydrofuran-3-yloxy]-N-{(1R)-1-[2-(trifluoromethyl)pyrimidin-5-yl]ethyl}benzamide], the values for the IC50 at human P2X3 receptor (setting [1]) and on human P2X2/3 receptor were 0.005 µM and 0.038 µM, respectively.

In the case of `CCc1cnc(-c2cc(OC[C@@H]3CCOC3)cc(C(=O)N[C@H](C)c3cnc(C)cn3)c2)s1` [Example 259, 3-(5-ethyl-1,3-thiazol-2-yl)-N-[(1R)-1-(5-methylpyrazin-2-yl)ethyl]-5-[(3R)-tetrahydrofuran-3-ylmethoxy]benzamide], the results for the IC50 at human P2X3 receptor (setting [1]) and at human P2X2/3 receptor were 0.01 µM and 0.102 µM, respectively.

As for `Cc1cnc([C@@H](C)NC(=O)c2cc(Oc3nnc(C)s3)cc(-c3ncc(C)s3)c2)cn1` [Example 109, N-[(1R)-1-(5-Methylpyrazin-2-yl)ethyl]-3-[(5-methyl-1,3,4-thiadiazol-2-yl)oxy]-5-(5-methyl-1,3-thiazol-2-yl)benzamide], the IC50 at human P2X3 receptor (setting [1]) was found to be 0.235 µM; on human P2X2/3 receptor, 2.41 µM.

In the case of `Cc1cnc(-c2cc(OC3CCOCC3)cc(C(=O)NC(C)c3ncc(F)cc3Cl)c2)s1` (centres unmarked) [Example 80, N-[1-(3-Chloro-5-fluoropyridin-2-yl)ethyl]-3-(5-methyl-1,3-thiazol-2-yl)-5-(tetrahydro-2H-pyran-4-yloxy)benzamide], the IC50 on human P2X3 receptor (setting [1]) was found to be 0.012 µM; at human P2X2/3 receptor, 0.339 µM.

Regarding `CC(C)c1cnc(-c2cc(O[C@@H]3CCOC3)cc(C(=O)N[C@H](C)c3cnc(C(F)(F)F)nc3)c2)s1` [Example 248, 3-[5-(propan-2-yl)-1,3-thiazol-2-yl]-5-[(3R)-tetrahydrofuran-3-yloxy]-N-{(1R)-1-[2-(trifluoromethyl)pyrimidin-5-yl]ethyl}benzamide], the IC50 turned out to be 0.044 µM on human P2X3 receptor (setting [1]) and 0.273 µM at human P2X2/3 receptor.

Take `Cc1cnc(-c2cc(OCC(C)(C)O)cc(C(=O)N[C@H](C)c3cnc(C(F)(F)F)nc3)c2)s1` [Example 328, 3-(2-hydroxy-2-methylpropoxy)-5-(5-methyl-1,3-thiazol-2-yl)-N-{(1R)-1-[2-(trifluoromethyl)pyrimidin-5-yl]ethyl}benzamide]: the IC50 at human P2X3 receptor was determined as 0.012 µM; on human P2X2/3 receptor, 0.274 µM.

Consider `Cc1ccc([C@@H](C)NC(=O)c2cc(OC3CCOCC3)cc(-c3ncc(C)s3)c2)nn1` [Example 87, N-[(1R)-1-(6-Methylpyridazin-3-yl)ethyl]-3-(5-methyl-1,3-thiazol-2-yl)-5-(tetrahydro-2H-pyran-4-yloxy)benzamide], for which the results for the IC50 at human P2X3 receptor (setting [1]) and at human P2X2/3 receptor were 0.015 µM and 0.119 µM, respectively.

For `Cc1cnc(-c2cc(O[C@@H]3CCCN(C(=O)OC(C)(C)C)C3)cc(C(=O)N[C@H](C)c3cnc(C(F)(F)F)nc3)c2)s1` [Example 190, tert-Butyl (3R)-3-[3-(5-methyl-1,3-thiazol-2-yl)-5-({(1R)-1-[2-(trifluoromethyl)pyrimidin-5-yl]ethyl}carbamoyl)phenoxy]piperidine-1-carboxylate], the values for the IC50 on human P2X3 receptor (setting [1]) and at human P2X2/3 receptor were 0.007 µM and 0.207 µM, respectively.

As to `C[C@@H](NC(=O)c1cc(OC[C@H]2CCCO2)cc(-c2ncc(C3CCC3)s2)c1)c1cnc(C(F)(F)F)nc1` [Example 272, 3-(5-cyclobutyl-1,3-thiazol-2-yl)-5-[(2R)-tetrahydrofuran-2-ylmethoxy]-N-{(1R)-1-[2-(trifluoromethyl)pyrimidin-5-yl]ethyl}benzamide], the IC50 at human P2X3 receptor is 0.019 µM; on human P2X2/3 receptor, 0.128 µM.

Take `Cc1cnc(-c2cc(OC[C@H]3CN(C)CCO3)cc(C(=O)N[C@H](C)c3ccc(C(F)F)nc3)c2)s1` [Example 369, N-{(1R)-1-[6-(difluoromethyl)pyridin-3-yl]ethyl}-3-{[(2R)-4-methylmorpholin-2-yl]methoxy}-5-(5-methyl-1,3-thiazol-2-yl)benzamide]: the IC50 on human P2X3 receptor (setting [1]) is 0.011 µM; on human P2X2/3 receptor, 0.328 µM.

With `CCc1cnc(-c2cc(OC[C@@H]3CNCCO3)cc(C(=O)N[C@H](C)c3ccc(C(F)(F)F)nn3)c2)s1` [Example 414, 3-(5-ethyl-1,3-thiazol-2-yl)-5-[(2S)-morpholin-2-ylmethoxy]-N-{(1R)-1-[6-(trifluoromethyl)pyridazin-3-yl]ethyl}benzamide], the results for the IC50 at human P2X3 receptor (setting [1]) and at human P2X2/3 receptor were 0.029 µM and 2.27 µM, respectively.

Consider `Cc1cnc(-c2cc(OC3COC3)cc(C(=O)NC(C)c3nnc(C(F)(F)F)s3)c2)s1` (single isomer, unassigned) [Example 193, 3-(5-Methyl-1,3-thiazol-2-yl)-5-(oxetan-3-yloxy)-N-{1-[5-(trifluoromethyl)-1,3,4-thiadiazol-2-yl]ethyl}benzamide], for which the IC50 was 2.71 µM on human P2X3 receptor (setting [1]) and not below 10 µM at human P2X2/3 receptor.

Turning to `Cc1cnc(-c2cc(OC[C@@H]3CN(C)C(=O)CO3)cc(C(=O)N[C@H](C)c3cnc(C(F)(F)F)nc3)c2)s1` [Example 401, 3-{[(2S)-4-methyl-5-oxomorpholin-2-yl]methoxy}-5-(5-methyl-1,3-thiazol-2-yl)-N-{(1R)-1-[2-(trifluoromethyl)pyrimidin-5-yl]ethyl}benzamide], the figures for the IC50 at human P2X3 receptor (setting [1]) and on human P2X2/3 receptor were 0.03 µM and 1.47 µM, respectively.

Turning to `C#CCOc1cc(C(=O)NCc2cnc(C)cn2)cc(-c2ncc(C)s2)c1` [Example 35, N-[(5-Methylpyrazin-2-yl)methyl]-3-(5-methyl-1,3-thiazol-2-yl)-5-(prop-2-yn-1-yloxy)benzamide], the values for the IC50 on human P2X3 receptor (setting [1]) and at human P2X2/3 receptor were 0.46 µM and not below 10 µM, respectively.

On to `Cc1cnc(-c2cc(OC3CCNC(C(F)(F)F)C3)cc(C(=O)N[C@H](C)c3cnc(C(F)(F)F)nc3)c2)s1` (single isomer, unassigned) [Example 208], for which the IC50 on human P2X3 receptor (setting [1]) is 0.002 µM; on human P2X2/3 receptor, 0.089 µM.
